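Results reflect a 48-hour exposure of cells in 96-well plates to compound at five concentrations. GI50: concentration for 50% inhibition of growth. Definition used: TGI = concentration required for complete inhibition of growth.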
Columns and labels:
Experiment in all cases: DTP human tumour cell line panel, 48 h
[1] = test system: SN12C renal
[2] = test system: TK-10 renal
[3] = test system: M14 melanoma
[4] = test system: MDA-MB-435
[5] = test system: UO-31 renal
[6] = test system: HOP-62 NSCLC
[7] = test system: MDA-MB-231 breast
[8] = test system: RXF 393 renal

Row | Structure (SMILES) | GI50 [1] | TGI [1] | GI50 [2] | TGI [2] | GI50 [3] | TGI [3] | GI50 [4] | TGI [4] | GI50 [5] | TGI [5] | GI50 [6] | TGI [6] | GI50 [7] | TGI [7] | GI50 [8] | TGI [8]
1 | O=C(OCc1ccc2ccccc2n1)c1cn(C2CC2)c2cc(N3CCN(Cc4ccc5ccccc5n4)CC3)c(F)cc2c1=O | > 100 µM | > 100 µM | 31.9 µM | > 74.6 µM | > 56.3 µM | 99.8 µM | 39.4 µM | > 100 µM | > 100 µM | > 100 µM | > 53.8 µM | > 95.2 µM | > 46.9 µM | > 84 µM | 63.6 µM | > 100 µM
2 | O=C1OC(=O)C(=C\c2ccc3c(c2)OCO3)/C1=C/c1ccc2c(c1)OCO2 |  | > 100 µM |  | > 100 µM |  | > 100 µM |  | > 100 µM |  | > 100 µM |  | > 100 µM |  | > 100 µM |  | > 100 µM
3 | CN1CCN(C(=O)c2cc(-c3ccc4ncnc(N5CCc6cc(F)c(Cl)cc65)c4c3)cnc2N)CC1 | 0.15 µM | 10.5 µM | 0.178 µM | 1.45 µM | 0.338 µM | 4.75 µM | 0.201 µM | 1.2 µM | 0.0996 µM | 4.42 µM | 0.244 µM | 4.46 µM | 0.444 µM | 3.12 µM | 0.0922 µM | 0.48 µM
4 | CC(=O)Nc1ccc(C(O)/C(=N/N)c2nc3ccc(Cl)cc3[nH]c2=O)cc1 (stereo not given) |  | > 100 µM |  | > 100 µM |  | > 100 µM |  | > 100 µM |  | > 100 µM |  | > 100 µM |  | > 100 µM |  | > 100 µM
5 | CC(C)NCCCn1c(Sc2cc3c(cc2I)OCO3)nc2c(N)ncnc21 | 0.174 µM | > 100 µM | 0.161 µM | > 100 µM | 0.233 µM | 20.9 µM | 0.0919 µM | 42 µM | 0.323 µM | 7.13 µM | 0.263 µM | > 100 µM | 0.481 µM | 61 µM | 0.753 µM | 48.8 µM
6 | COC1C=COC2(C)Oc3c(C)c(O)c4c(c3C2=O)/C(=N/C2CCC(O)OC2C)C=C(NC(=O)/C(C)=C\C(=O)C2CC2C(O)C(C)C(O)C(C)C(OC(C)=O)C1C)C4=O (stereo not given) |  | 3.24 µM |  | 7.25 µM |  | 4.47 µM |  | 3.64 µM |  | 5.59 µM |  | 8.75 µM |  | 5.69 µM |  | 3.45 µM
7 | COc1ccc(-c2cc(-c3ccc(C)cc3)nc3nc(=S)[nH]c(N)c23)cc1 | 20.5 µM | 48.6 µM | 22.8 µM | 57.5 µM | 19.1 µM | 37.4 µM | 17.6 µM | 36.9 µM | 19.2 µM | 48 µM | 18.8 µM | 40.6 µM | 19.5 µM | 48.3 µM | 20.5 µM | 44.5 µM
8 | C[C@@H]1CN(Cc2ccc(F)cc2)[C@@H](C)CN1C(=O)c1cc2c(C(=O)C(=O)N(C)C)cn(C)c2cc1Cl | 15.7 µM | 43.5 µM | 30.3 µM | > 89.7 µM | 13.4 µM | 36.6 µM | 15 µM | 35.1 µM | 15.3 µM | > 81.9 µM | 18.7 µM | 48.9 µM | 14.9 µM | 32.7 µM | 12.3 µM | 27.6 µM
9 | COc1cc2c(cc1OCCCn1c(-c3ccccn3)nc3ccccc31)N=C[C@@H]1CCCN1C2=O | 3.05 µM | 15.1 µM | 3.32 µM | 10.9 µM | 0.92 µM | 2.8 µM | 1.42 µM | 2.91 µM | 0.474 µM | 2.59 µM | 2.92 µM | 9.57 µM | 2.5 µM | 13.5 µM | 0.571 µM | 3.64 µM
10 | CCCCCCCCCCCCCCCCCC1=NCCN1CCOC1=C(Cl)C(=O)c2ccccc2C1=O | 3.18 µM | 9.47 µM | 2.19 µM | 3.76 µM | 1.84 µM | 3.39 µM | 2.05 µM | 4.02 µM | 1.37 µM | 2.77 µM | 1.77 µM | 3.27 µM | 2.05 µM | 5.03 µM | 1.79 µM | 3.2 µM
11 | O=c1[nH]c(=O)n(C2CC(O)C(COP(=O)(OCc3ccc([N+](=O)[O-])o3)N(CCCCCl)CC(O)CO)O2)cc1F (stereo not given) | < 0.0496 µM |  | 0.326 µM | > 87.7 µM | 0.365 µM | 2.23 µM | 1.26 µM | > 100 µM | 0.174 µM | > 100 µM | 0.412 µM | > 26.2 µM | > 100 µM | > 100 µM | 0.0243 µM | 3.6 µM
12 | CN=c1ccc2nc3ccc(N)cc3sc-2c1 | 2.47 µM | 12.5 µM | 6.96 µM | 32.6 µM | 2.04 µM | 10.8 µM | 1.42 µM | 3.24 µM | 4.56 µM | 21.2 µM | 6.8 µM | 27.3 µM | 0.7 µM | 14.3 µM | 8.29 µM | 23.9 µM
13 | O=C(O)c1ccc(C(=O)c2ccccc2)c(C(=O)O)c1 |  | > 100 µM |  | > 100 µM |  | > 100 µM |  | > 100 µM |  | > 100 µM |  | > 100 µM |  | > 100 µM |  | > 100 µM
14 | O=C1/C(=C/c2ccccc2[N+](=O)[O-])Cc2ccccc21 | 2.54 µM | 9.17 µM | 3.14 µM | 7.1 µM | 1.97 µM | 3.96 µM | 3.06 µM | 11.8 µM | 1.21 µM | 2.68 µM | 3 µM | 17.2 µM | 1.7 µM | 6.2 µM | 1.45 µM | 2.99 µM
15 | CN[C@@H](C)C(=O)N[C@H](C(=O)N1CCC[C@H]1C(=O)Nc1sc(-c2ncco2)nc1-c1ccccc1)C1CCCCC1 | 38.9 µM | > 71.9 µM | 57.5 µM | > 100 µM | 18.5 µM | 36.7 µM | 26.3 µM | > 87.9 µM | 32.1 µM | > 68.9 µM | > 92.2 µM | > 100 µM | 0.425 µM | 17.2 µM | 8.51 µM | 32.3 µM
16 | OCC1OC(n2cnc3c(N/N=C\c4ccccn4)ncnc32)C(O)C1O (stereo not given) | 0.107 µM | 7.48 µM | 0.159 µM | > 100 µM | 0.426 µM | 3.89 µM | 0.43 µM | > 100 µM | 0.235 µM | 1.44 µM | 0.289 µM | 2.14 µM | 0.0781 µM | > 57.3 µM | 0.275 µM | 2.45 µM
17 | O=C1NC(=O)C(N2C(=O)c3ccccc3C2=O)CC1O (stereo not given) | > 100 µM | > 100 µM | > 100 µM | > 100 µM | > 100 µM | > 100 µM | > 100 µM | > 100 µM | > 100 µM | > 100 µM | > 100 µM | > 100 µM | > 100 µM | > 100 µM | > 100 µM | > 100 µM
18 | O=C1OCC2=C1C(c1ccc(Cl)c(Cl)c1)c1cc3c(cc1N2CCO)OCCO3 (stereo not given) | 0.688 µM | 20 µM | 0.513 µM | 20 µM | 0.264 µM | 5.65 µM | 0.102 µM | 0.468 µM | 0.256 µM | 30.6 µM | 0.295 µM | 15.1 µM | 0.833 µM | 7.59 µM | 0.116 µM | 0.751 µM
19 | OCc1ccc(N2CCCC2c2ccccc2)cc1Cl (stereo not given) | 8.22 µM | 21.7 µM | 0.195 µM | 1.27 µM | 5.24 µM | 21.3 µM | 1.74 µM | 4.18 µM | 9.28 µM | 27.4 µM | 3.69 µM | 15.8 µM | 5.58 µM | 24.9 µM | 3.2 µM | 15.2 µM
20 | CC(=O)/C=C/c1cn(C(=O)OC(C)(C)C)c2ccc(Br)cc12 | 13.8 µM | 36.4 µM | 17.6 µM | 33.9 µM | 30.1 µM | > 100 µM | 9.97 µM | 25.9 µM | 10.3 µM | 51.9 µM | 15.8 µM | 30.4 µM | 18.9 µM | 43.8 µM | 15.6 µM | 37 µM
21 | O=S(=O)(Nc1cc(Sc2cccc3cccnc23)c(O)c2ccccc12)c1ccc(F)cc1 | 0.97 µM | 3.61 µM | 2.81 µM | 11.5 µM | 1.27 µM | 3.53 µM | 2.27 µM | 8.66 µM | 1.09 µM | 4.75 µM | 2.05 µM | 17 µM | 0.837 µM | 8.9 µM | 1.97 µM | 5.43 µM
22 | c1cnn2ncc(-c3ccnc(NCCCN4CCOCC4)n3)c2c1 | 8.2 µM | > 25 µM | 6.67 µM | > 23.2 µM | 8.63 µM | > 25 µM | 7.56 µM | > 25 µM | 5.23 µM | 21 µM | 5.76 µM | > 16.6 µM | 8.04 µM | > 25 µM | 3.34 µM | 7.78 µM
23 | O=[N+]([O-])c1ccc(C=Cc2ccccc2)cc1.[C-]#[O+].[C-]#[O+].[C-]#[O+].[Cr] | 10.1 µM | > 100 µM | 12 µM | > 100 µM | 7.58 µM | > 100 µM | 4.81 µM | > 100 µM | 6.3 µM | > 100 µM | > 100 µM | > 100 µM | 46.9 µM | > 100 µM | 11.8 µM | > 100 µM

Reference: PubChem BioAssay (NCI)
